Results taken from article PMC7284125, “Identification of annotated bioactive molecules that impair motility of the blood fluke Schistosoma mansoni” (International Journal for Parasitology: Drugs and Drug …, 2020).
Like-named read-outs stand apart in the source and are kept apart here.

Columns and labels:
[1] = test system: S. mansoni schistosomulae; experiment: Phenotypic primary screen assay on schistosomulae (phenotype; viability by methylene blue dye exclusion); format: cell-based, Schistosoma mansoni; conditions: three-day-old schistosomulae, 10 μM, 24 h; estimated 5 days post compound exposure
Protocol: Puerto Rican strain Biomphalaria glabrata snails infected with S. mansoni were kindly provided by Dr. Fred Lewis (Biomedical Research Institute and BEI Resources, MD, USA). Schistosomulae were obtained by exposing six to eight weeks-old snails to continuous light for 2 h at 32 °C. […] At this point, animals with internal dark granulations and with no observable body contraction/relaxation cycles were considered dead.
Schistosomulae were monitored under a stereo microscope (SMZ1270, Nikon). Phenotypic observations were made by analyzing schistosomulae, 24 h after drug addition to assess any immediate effect and five days post-compound exposure to observe long-term impacts on both the movement and overall body shape in comparison to control animals exposed to DMSO only.

[2] = test system: S. mansoni schistosomulae; experiment: Motility assay on schistosomulae (pixel displacement, relative to DMSO control); format: cell-based, Schistosoma mansoni; conditions: schistosomulae, secondary screen, 24h exposure; for activity at 1 µM: Schistosoma mansoni, read-out: Fractional motility
Protocol: Puerto Rican strain Biomphalaria glabrata snails infected with S. mansoni were kindly provided by Dr. Fred Lewis (Biomedical Research Institute and BEI Resources, MD, USA). Schistosomulae were obtained by exposing six to eight weeks-old snails to continuous light for 2 h at 32 °C. The resulting suspension of cercaria was then mechanically transformed as described ([Lewis, 2001]) and cultured in Opti-MEM/antibiotics (Thermo Fisher Scientific, Waltham, MA) containing 100 μg/mL streptomycin and 100 units/ml penicillin supplemented with 5% fetal bovine serum (FBS; Thermo Fisher). Parasite cultures were incubated at 37 °C with 5% CO2 for at least 10 days with no apparent loss of viability. At this point, animals with internal dark granulations and with no observable body contraction/relaxation cycles were considered dead.
(§1) Schistosomulae (200/well) and adult parasites (unpaired worms) were maintained in 300 μL OPTI-MEM with 5% dialyzed FBS (without antibiotics) and exposed to compounds at 1 and 10 μM for 24 h. A kinetic assay consisting of 1, 3, 6 and 12 h incubation times was performed on selected hits by motility monitoring using a stereo microscope (SMZ1270, Nikon) for adults and an inverted microscope for schistosomulae (eclipse TE2000-U, Nikon) connected to a monochrome camera (DS-Qi2, Nikon) for image acquisition. Images were recorded at a rate of 10 frames/s for a period of 1 min and videos were analyzed using ImageJ software (version 1.41, NIH, USA). Parasite movement quantification and data analysis protocols were applied using the pixel displacement method ([Patocka et al., 2014]; [Rashid et al., 2015]) and compared to control parasites treated with DMSO. Parasites were then washed several times in Opti-MEM, 5% FBS and incubated up to an additional three days (schistosomulae) or five days (adult worms) at 37 °C, 5% CO2 and motility was recorded as described above.

S. mansoni adult worms = experiment: Motility assay on adult parasites (pixel displacement, relative to DMSO control); format: cell-based, Schistosoma mansoni; conditions: secondary screen, 10 μM
Protocol: Adult parasites were collected from 40 day-old female CD1 mice (Charles River) previously inoculated by the tail infection method ([Lewis, 2001]). Six weeks post-infection, mice were sacrificed, and adult worms extracted after perfusion of in the hepatic portal vein and mesenteric venules ([Lewis, 2001]). Animal procedures were reviewed and approved by the Facility Animal Care Committee of McGill University (Protocol No. 3346) and were conducted in accordance with the guidelines of the Canadian Council on Animal Care.
as §1

[3] = test system: S. mansoni schistosomulae; experiment: Phenotypic primary screen assay on schistosomulae (phenotype; viability by methylene blue dye exclusion); format: cell-based; conditions: Schistosoma mansoni
[4] = three-day-old schistosomulae, 10 μM, 24 h, calculated 5 days post compound exposure, read-out: Viability (%)

Row | SMILES | Phenotype [1] | activity at 1 µM ([2]; 120 h, read at D5, 1 µM) | activity at 1 µM ([2]; read at D1, 1 µM) | Fractional motility ([2]; read at D1, 10 µM) | Fractional motility ([2]; read at D5, 10 µM) | Fractional motility (S. mansoni adult worms; D1, Female adult worms) | Fractional motility (S. mansoni adult worms; D1, Male adult worms) | Fractional motility (S. mansoni adult worms; D5, Female adult worms) | Fractional motility (S. mansoni adult worms; D5, Male adult worms) | viability at 10 µM [3] | viability at 10 µM [3, 4]
1 | NC(=O)C(c1ccccc1)(c1ccccc1)[C@@H]1CCN(CCc2ccc3c(c2)CCO3)C1 [Darifenacin] | elongated, granulated | -59% | -60% | -0.70 | 0.35 | 1.90 | 3.54 | -0.69 | -0.23 | 98.5% | –
2 | CN(C)CCC[C@@]1(c2ccc(F)cc2)OCc2cc(C#N)ccc21 [Escitalopram] | abnormal morphology | 16% | 361% | 5.42 | 0.71 | 2.54 | 6.67 | 0.95 | 0.26 | – | 98%
3 | C[C@]12CC[C@@H]3c4ccc(O)cc4CC[C@H]3[C@@H]1CC[C@@H]2O [Estradiol] | blebbing | 23% | 87% | 2.93 | 0.31 | -0.35 | 0.83 | 0.13 | 0.26 | – | 98%
4 | CCCCCCCCc1ccc(CCC(N)(CO)CO)cc1 [Fingolimod] | dark, granulated | 151% | 180% | 2.04 | -1.00 | -0.39 | 0.65 | -0.09 | -0.15 | – | 0%
5 | CNCCC(Oc1ccc(C(F)(F)F)cc1)c1ccccc1 (stereo not shown) [Fluoxetine] | elongated | 105% | – | 15.72 | 0.95 | 1.96 | 2.26 | 0.45 | -0.0243 | – | 98.5%
6 | COCCCC/C(=N\OCCN)c1ccc(C(F)(F)F)cc1 [Fluvoxamine] | elongated | 99% | 812% | 10.49 | 3.18 | 1.69 | 4.13 | 0.13 | 0.22 | – | 97%
7 | C#C[C@]1(O)C=C[C@H]2[C@@H]3CCC4=CC(=O)CC[C@@H]4[C@H]3CC[C@@]21CC [Gestodene] | granulated | -29% | 51% | 4.27 | -0.32 | 1.24 | 3.68 | – | – | – | 98%
